This is an account of results in US8541588B2, “Sulfonamide derivatives” (Pfizer Limited, priority 2009, dated 2013).

The IC50 is the midpoint of a concentration-inhibition curve.

For this experiment, the target named is T1, Nav1.7 (or SCN9A) channel; HEK cells stably transfected with hSCN9A (Homo sapiens, UniProt Q15858).
T1 construct: expressed in transfected cells
The experiment can be described thus: Nav1.7 block, PatchXpress 7000 automated whole-cell voltage clamp, estimated IC50 (EIC50). It counts as cell-based. The following applies: PatchXpress platform, estimated IC50.

Setting [1] is: hSCN9A HEK cells held at V1/2 of inactivation.
Setting [2] is: hSCN9A HEK cells, Examples 283-814.

T1 sequence (Q15858 whole entry): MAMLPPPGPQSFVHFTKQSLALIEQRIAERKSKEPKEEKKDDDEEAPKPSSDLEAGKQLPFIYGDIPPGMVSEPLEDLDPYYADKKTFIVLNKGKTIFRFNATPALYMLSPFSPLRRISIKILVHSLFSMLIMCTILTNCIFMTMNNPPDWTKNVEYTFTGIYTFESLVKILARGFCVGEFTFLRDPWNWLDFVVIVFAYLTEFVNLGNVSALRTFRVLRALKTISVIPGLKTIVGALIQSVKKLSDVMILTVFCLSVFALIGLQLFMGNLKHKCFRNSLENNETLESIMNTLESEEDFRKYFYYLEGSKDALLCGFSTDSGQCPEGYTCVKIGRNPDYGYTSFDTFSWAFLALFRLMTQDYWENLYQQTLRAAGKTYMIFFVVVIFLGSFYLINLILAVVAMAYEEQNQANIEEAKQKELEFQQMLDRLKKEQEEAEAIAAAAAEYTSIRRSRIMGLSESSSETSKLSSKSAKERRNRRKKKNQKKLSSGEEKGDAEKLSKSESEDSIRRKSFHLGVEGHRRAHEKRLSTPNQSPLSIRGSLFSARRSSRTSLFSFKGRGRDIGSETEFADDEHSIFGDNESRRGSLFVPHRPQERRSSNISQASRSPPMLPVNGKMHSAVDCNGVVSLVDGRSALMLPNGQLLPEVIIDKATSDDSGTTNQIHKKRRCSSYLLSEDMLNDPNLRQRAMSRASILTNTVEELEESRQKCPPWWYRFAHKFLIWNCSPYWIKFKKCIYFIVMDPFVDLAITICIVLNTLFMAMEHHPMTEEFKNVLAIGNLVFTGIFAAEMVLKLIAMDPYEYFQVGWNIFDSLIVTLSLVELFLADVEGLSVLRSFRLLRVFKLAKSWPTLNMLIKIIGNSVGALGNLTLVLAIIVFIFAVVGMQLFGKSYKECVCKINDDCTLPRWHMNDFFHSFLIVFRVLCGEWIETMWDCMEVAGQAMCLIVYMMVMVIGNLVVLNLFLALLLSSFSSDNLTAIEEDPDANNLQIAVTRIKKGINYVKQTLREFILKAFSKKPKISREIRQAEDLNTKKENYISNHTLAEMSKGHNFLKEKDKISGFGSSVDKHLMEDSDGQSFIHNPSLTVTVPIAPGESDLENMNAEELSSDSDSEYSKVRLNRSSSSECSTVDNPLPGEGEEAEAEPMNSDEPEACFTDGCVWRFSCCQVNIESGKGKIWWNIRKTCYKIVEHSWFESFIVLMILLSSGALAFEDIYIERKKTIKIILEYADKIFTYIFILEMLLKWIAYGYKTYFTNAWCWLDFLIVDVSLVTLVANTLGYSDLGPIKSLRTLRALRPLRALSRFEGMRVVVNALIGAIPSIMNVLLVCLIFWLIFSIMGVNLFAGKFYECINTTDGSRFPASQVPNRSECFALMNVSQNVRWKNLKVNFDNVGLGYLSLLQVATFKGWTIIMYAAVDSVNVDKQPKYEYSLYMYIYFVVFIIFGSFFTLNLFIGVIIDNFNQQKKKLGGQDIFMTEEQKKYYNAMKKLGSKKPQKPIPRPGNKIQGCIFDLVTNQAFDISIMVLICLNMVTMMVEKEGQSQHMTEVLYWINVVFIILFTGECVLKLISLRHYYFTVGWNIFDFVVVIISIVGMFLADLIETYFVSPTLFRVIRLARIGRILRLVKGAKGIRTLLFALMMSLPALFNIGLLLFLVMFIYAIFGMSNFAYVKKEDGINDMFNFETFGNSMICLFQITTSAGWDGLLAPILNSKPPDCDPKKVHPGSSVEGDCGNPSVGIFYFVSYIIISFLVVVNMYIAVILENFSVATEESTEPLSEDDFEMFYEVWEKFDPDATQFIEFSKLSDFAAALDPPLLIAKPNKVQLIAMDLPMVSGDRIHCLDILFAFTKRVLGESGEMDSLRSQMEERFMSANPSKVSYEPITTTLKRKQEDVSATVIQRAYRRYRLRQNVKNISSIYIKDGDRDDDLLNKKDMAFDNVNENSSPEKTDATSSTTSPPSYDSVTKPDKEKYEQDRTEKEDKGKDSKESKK

As for “3-fluoro-4-(4-methyl-2-(1-methyl-1H-pyrazol-3-yl)phenoxy)-N-(thiazol-2-yl)benzenesulfonamide [Example 215]”, the IC50 under setting [1] was 6440 nM.
Regarding “4-(4-chloro-2-piperidin-4-ylphenoxy)-2,5-difluoro-N-1,2,4-thiadiazol-5-ylbenzenesulfonamide [Example 636]”, the IC50 under setting [2] was 8.4 nM.
As for “4-[2-(2-aminopyridin-4-yl)-4-(trifluoromethoxy)phenoxy]-2,5-difluoro-N-1,2,4-thiadiazol-5-ylbenzenesulfonamide [Example 552]”, under setting [2], the IC50 was 2.4 nM.
Still for that read-out and setting: then “4-[2-fluoro-4-(3-methoxy-1-methyl-1H-pyrazol-5-yl)phenoxy]-N-1,3-thiazol-2-ylbenzenesulfonamide [Example 435]”, with 2700 nM.
With `Cn1nccc1-c1cc(F)ccc1Oc1ccc(S(=O)(=O)Nc2ncns2)cc1C#N` [Example 1, 3-cyano-4-(4-fluoro-2-(1-methyl-1H-pyrazol-5-yl)phenoxy)-N-(1,2,4-thiadiazol-5-yl)benzenesulfonamide], the IC50 under setting [1] was 90 nM.
On the same count and under the same terms, the value for `Cc1nc(-c2ccccc2Oc2ccc(S(=O)(=O)Nc3nccs3)c(F)c2)cs1` [Example 2] was 810 nM; that for `Cn1nccc1-c1ccccc1Oc1ccc(S(=O)(=O)Nc2nccs2)cc1F` [Example 3, 3-fluoro-4-(2-(1-methyl-1H-pyrazol-5-yl)phenoxy)-N-(thiazol-2-yl)benzenesulfonamide] was 100 nM; that for `Cc1cc(OC(C)C)ccc1-c1ccccc1Oc1ccc(S(=O)(=O)Nc2ncns2)cc1C#N` [Example 4, 3-cyano-4-[(4′-isopropoxy-2′-methylbiphenyl-2-yl)oxy]-N-1,2,4-thiadiazol-5-ylbenzenesulfonamide] was 1710 nM.
Same read-out and setting: the value for `CC(C)Oc1cccc(-c2cc(F)ccc2Oc2ccc(S(=O)(=O)Nc3ncns3)cc2C#N)c1` [Example 5, 3-cyano-4-[(5-fluoro-3′-isopropoxybiphenyl-2-yl)oxy]-N-1,2,4-thiadiazol-5-ylbenzenesulfonamide] was 70 nM.
On the same count and under the same terms, the value for `N#Cc1cc(S(=O)(=O)Nc2ncns2)ccc1Oc1ccc(F)cc1C1CC1` [Example 6, 3-cyano-4-(2-cyclopropyl-4-fluorophenoxy)-N-1,2,4-thiadiazol-5-ylbenzenesulfonamide] was greater than 1000 nM.
For `CCc1ccc(-c2ncccc2Oc2ccc(S(=O)(=O)Nc3ncns3)cc2C#N)cc1` [Example 7, 3-cyano-4-{[2-(4-ethylphenyl)pyridin-3-yl]oxy}-N-1,2,4-thiadiazol-5-ylbenzenesulfonamide], under setting [1], the IC50 is 35900 nM.
Consider `CN(C)c1ncc(Oc2ccc(S(=O)(=O)Nc3ncns3)cc2C#N)c(-c2ccc(F)cc2)n1` [Example 8, 3-cyano-4-{[2-(dimethylamino)-4-(4-fluorophenyl)pyrimidin-5-yl]oxy}-N-1,2,4-thiadiazol-5-ylbenzenesulfonamide], for which, under setting [1], the IC50 is 450 nM.
With `Cc1ccc(-c2nc(N(C)C)ncc2Oc2ccc(S(=O)(=O)Nc3ncns3)cc2C#N)cc1` [Example 9, 3-cyano-4-{[2-(dimethylamino)-4-(4-methylphenyl)pyrimidin-5-yl]oxy}-N-1,2,4-thiadiazol-5-ylbenzenesulfonamide], under setting [1], the IC50 is 3500 nM.
The same measure, in the same setting: the value for `COc1ccc(-c2ccccc2Oc2ccc(S(=O)(=O)Nc3ncns3)cc2C#N)c(C)c1` [Example 10, 3-cyano-4-[(4′-methoxy-2′-methylbiphenyl-2-yl)oxy]-N-1,2,4-thiadiazol-5-ylbenzenesulfonamide] was 630 nM; that for `N#Cc1ccc(-c2ccccc2Oc2ccc(S(=O)(=O)Nc3ncns3)cc2C#N)cc1` [Example 11, 3-cyano-4-[(4′-cyanobiphenyl-2-yl)oxy]-N-1,2,4-thiadiazol-5-ylbenzenesulfonamide] was 430 nM; that for `Cc1ccc(Oc2ccc(S(=O)(=O)Nc3ncns3)cc2C#N)c(-c2ccccc2)n1` [Example 12, 3-cyano-4-[(6-methyl-2-phenylpyridin-3-yl)oxy]-N-1,2,4-thiadiazol-5-ylbenzenesulfonamide] was 720 nM.
